Source: the Kinase Knowledgebase extract (Sharma et al. 2016)

How the values were obtained:
[1] = tested on: EGFR (Human), P00533 [Assessment of Proliferation in EGFR DelE746_A750 Mutant Expressing HCC827 Cells]
[2] = tested on: EGFR (Human), P00533 [T790M/L858R]; settings: nci-h1975
Sequence of EGFR (Human), P00533 [T790M/L858R] (P00533 whole entry T790M/L858R, looked up): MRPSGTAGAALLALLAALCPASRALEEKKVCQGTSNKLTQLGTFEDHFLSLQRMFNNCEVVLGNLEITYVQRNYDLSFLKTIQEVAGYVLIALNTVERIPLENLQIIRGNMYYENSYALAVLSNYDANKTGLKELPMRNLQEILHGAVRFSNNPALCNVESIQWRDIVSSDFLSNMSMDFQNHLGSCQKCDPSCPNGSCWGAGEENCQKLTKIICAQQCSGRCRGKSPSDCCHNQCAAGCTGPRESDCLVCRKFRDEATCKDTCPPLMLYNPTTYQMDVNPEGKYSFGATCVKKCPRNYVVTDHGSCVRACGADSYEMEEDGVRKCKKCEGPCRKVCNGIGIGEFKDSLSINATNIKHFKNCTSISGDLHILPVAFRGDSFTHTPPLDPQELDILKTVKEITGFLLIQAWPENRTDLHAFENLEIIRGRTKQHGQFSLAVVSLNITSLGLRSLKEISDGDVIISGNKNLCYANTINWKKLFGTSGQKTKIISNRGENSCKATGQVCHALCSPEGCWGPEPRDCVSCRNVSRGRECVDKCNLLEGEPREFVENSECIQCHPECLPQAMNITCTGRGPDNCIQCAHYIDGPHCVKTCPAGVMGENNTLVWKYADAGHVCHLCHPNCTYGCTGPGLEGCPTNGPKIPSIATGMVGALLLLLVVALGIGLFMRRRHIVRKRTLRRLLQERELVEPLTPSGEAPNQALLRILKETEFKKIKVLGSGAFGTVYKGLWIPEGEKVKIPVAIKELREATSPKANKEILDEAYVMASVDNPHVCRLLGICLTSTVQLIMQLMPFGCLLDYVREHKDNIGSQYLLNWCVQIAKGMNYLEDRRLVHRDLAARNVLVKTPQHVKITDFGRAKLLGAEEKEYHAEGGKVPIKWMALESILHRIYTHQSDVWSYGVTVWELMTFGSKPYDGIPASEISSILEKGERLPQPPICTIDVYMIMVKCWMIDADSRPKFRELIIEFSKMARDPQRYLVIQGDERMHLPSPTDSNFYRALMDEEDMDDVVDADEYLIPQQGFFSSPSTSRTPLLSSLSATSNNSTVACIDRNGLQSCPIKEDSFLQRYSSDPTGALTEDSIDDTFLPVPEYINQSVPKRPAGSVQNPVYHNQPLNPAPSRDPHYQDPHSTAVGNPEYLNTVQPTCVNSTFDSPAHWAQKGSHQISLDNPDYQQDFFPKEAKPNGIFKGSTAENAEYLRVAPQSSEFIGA

Sequence of EGFR (Human), P00533 [Assessment of Proliferation in EGFR DelE746_A750 Mutant Expressing HCC827 Cells] (P00533 whole entry, looked up, stated change not applied): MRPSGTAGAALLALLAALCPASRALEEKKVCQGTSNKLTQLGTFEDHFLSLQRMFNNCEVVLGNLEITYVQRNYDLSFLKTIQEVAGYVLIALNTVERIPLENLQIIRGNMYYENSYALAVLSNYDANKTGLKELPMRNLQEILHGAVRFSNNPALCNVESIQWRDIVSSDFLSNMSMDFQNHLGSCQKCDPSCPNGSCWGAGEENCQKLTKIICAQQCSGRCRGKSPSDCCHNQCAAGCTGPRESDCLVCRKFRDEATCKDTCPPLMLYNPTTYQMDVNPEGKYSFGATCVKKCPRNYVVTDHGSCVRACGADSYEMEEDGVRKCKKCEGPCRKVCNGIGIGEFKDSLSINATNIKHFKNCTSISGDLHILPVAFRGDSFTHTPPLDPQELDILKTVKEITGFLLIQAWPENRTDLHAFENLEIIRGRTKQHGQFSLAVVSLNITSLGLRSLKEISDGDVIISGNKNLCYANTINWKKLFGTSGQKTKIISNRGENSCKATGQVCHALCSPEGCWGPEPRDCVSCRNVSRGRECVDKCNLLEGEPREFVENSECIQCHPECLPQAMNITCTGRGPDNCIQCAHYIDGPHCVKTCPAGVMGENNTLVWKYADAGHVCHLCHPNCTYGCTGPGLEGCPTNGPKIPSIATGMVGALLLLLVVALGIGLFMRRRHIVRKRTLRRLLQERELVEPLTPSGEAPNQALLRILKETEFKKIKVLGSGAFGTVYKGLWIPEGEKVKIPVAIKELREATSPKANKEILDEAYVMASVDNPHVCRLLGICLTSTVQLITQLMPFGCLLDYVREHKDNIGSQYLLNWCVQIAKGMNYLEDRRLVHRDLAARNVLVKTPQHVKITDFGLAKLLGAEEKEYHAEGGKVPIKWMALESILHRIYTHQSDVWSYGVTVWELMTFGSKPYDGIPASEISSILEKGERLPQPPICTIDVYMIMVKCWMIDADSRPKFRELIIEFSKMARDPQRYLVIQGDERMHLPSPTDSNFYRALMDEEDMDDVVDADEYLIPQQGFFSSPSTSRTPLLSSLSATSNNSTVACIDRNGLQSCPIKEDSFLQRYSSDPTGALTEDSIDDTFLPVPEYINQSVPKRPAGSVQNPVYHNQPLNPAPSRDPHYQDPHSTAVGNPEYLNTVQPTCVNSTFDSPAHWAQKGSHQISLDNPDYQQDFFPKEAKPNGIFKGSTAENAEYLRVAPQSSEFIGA

| Structure (SMILES) | GI50 [1] [µM] | GI50 [2] [µM] |
| --- | --- | --- |
| C=CC(=O)Nc1cccc(Oc2nc(Nc3ccc(N4CCN(C)CC4)c(OC)c3)nc3ccoc23)c1 | ≤ 0.05 | ≤ 0.05 |
| C=CC(=O)Nc1cccc(Oc2nc(Nc3ccc4c(c3)OCCO4)nc3ccsc23)c1 | 0.05 to 0.1 | ≤ 0.05 |
| C=CC(=O)Nc1cccc(Oc2nc(Nc3ccc(N4CC5CC4CN5C)cc3)nc3ccsc23)c1 (stereo not drawn) | 0.05 to 0.1 | ≤ 0.05 |
| C=CC(=O)Nc1cccc(Oc2nc(Nc3ccc(N4CCN(CCOC)CC4)cc3)nc3ccsc23)c1 | ≤ 0.05 | ≤ 0.05 |
| C=CC(=O)Nc1cccc(Oc2nc(Nc3ccc(NC4CCN(C)CC4)c(F)c3)nc3ccoc23)c1 | ≤ 0.05 | ≤ 0.05 |
| C=CC(=O)Nc1cccc(Oc2nc(Nc3ccc(N4CCN(C5CCN(C)CC5)CC4)nc3)nc3ccsc23)c1 | ≤ 0.05 | ≤ 0.05 |
| C=CC(=O)Nc1cccc(Nc2nc(Nc3ccc(CCN(C)C)cc3)nc3ccsc23)c1 | 0.05 to 0.1 | ≤ 0.05 |
| C=CC(=O)Nc1cccc(Oc2nc(Nc3ccc(C4=CCN(C)CC4)cc3)nc3ccsc23)c1 | ≤ 0.05 | ≤ 0.05 |
| C=CC(=O)Nc1cccc(Oc2nc(Nc3ccc(S(C)(=O)=O)cc3)nc3ccsc23)c1 | 0.05 to 0.1 | ≤ 0.05 |
| C=CC(=O)Nc1cccc(Oc2nc(Nc3ccc(N4CCNCC4)cc3)nc3ccsc23)c1 | ≤ 0.05 | 0.1 to 1 |
| C=CC(=O)Nc1cccc(Oc2nc(Nc3ccc(CN4CCC(N(C)C)CC4)cc3)nc3ccsc23)c1 | ≤ 0.05 | ≤ 0.05 |
| C=CC(=O)Nc1cccc(Oc2nc(Nc3ccc(C4CCCN(C)C4)cc3)nc3ccsc23)c1 (stereo not drawn) | ≤ 0.05 | ≤ 0.05 |
| C=CC(=O)Nc1cccc(Oc2nc(Nc3ccc(N4CCN(CC(F)(F)F)CC4)cc3)nc3ccsc23)c1 | 0.05 to 0.1 | ≤ 0.05 |
| C=CC(=O)Nc1cccc(Oc2nc(Nc3ccc(N4CCN(CC)CC4)cc3OC)nc3ccsc23)c1 | ≤ 0.05 | ≤ 0.05 |
| C=CC(=O)Nc1cccc(Oc2nc(Nc3ccc(N4CCN(C)CC4)c(Cl)c3)nc3ccsc23)c1 | ≤ 0.05 | ≤ 0.05 |
| C=CC(=O)Nc1cccc(Oc2nc(Nc3ccc(N4CCC(N5CCCC5)CC4)c(F)c3)nc3ccsc23)c1 | ≤ 0.05 | ≤ 0.05 |
| C=CC(=O)Nc1cccc(Oc2nc(Nc3ccc(NC(=O)N4CCN(C)CC4)c(F)c3)nc3ccsc23)c1 | ≤ 0.05 | 0.05 to 0.1 |
| C=CC(=O)Nc1cccc(Oc2nc(Nc3ccc(N4CCN(S(=O)(=O)CC)CC4)c(F)c3)nc3ccsc23)c1 | 0.05 to 0.1 | ≤ 0.05 |
| C=CC(=O)Nc1cccc(Sc2nc(Nc3ccc(C4CCN(C)CC4)c(F)c3)nc3ccsc23)c1 | ≤ 0.05 | ≤ 0.05 |
| C=CC(=O)Nc1cccc(Oc2nc(Nc3ccc(N4CC(C)OC(C)C4)c(F)c3)nc3ccsc23)c1 (stereo not drawn) | 0.05 to 0.1 | 0.05 to 0.1 |
| C=CC(=O)Nc1cccc(Sc2nc(Nc3ccc(N4CCN(C)CC4)cc3)nc3ccsc23)c1 | ≤ 0.05 | ≤ 0.05 |
| C=CC(=O)Nc1cccc(Oc2nc(Nc3ccc(CCO)cc3)nc3ccsc23)c1 | ≤ 0.05 | ≤ 0.05 |
| C=CC(=O)Nc1cccc(Oc2nc(Nc3ccc(C4CCN(C)CC4)c(F)c3)nc3ccsc23)c1 | ≤ 0.05 | ≤ 0.05 |
| C=CC(=O)Nc1cccc(Oc2nc(Nc3ccc(N4CCCCC4)cc3)nc3ccsc23)c1 | 0.1 to 1 | ≤ 0.05 |
| C=CC(=O)Nc1cccc(Oc2nc(Nc3ccc(C(=O)N4CCN(S(=O)(=O)CC)CC4)c(Cl)c3)nc3ccsc23)c1 | ≤ 0.05 | 0.05 to 0.1 |
| C=CC(=O)Nc1cccc(Oc2nc(Nc3ccc(NC4CCN(C)CC4)cc3)nc3ccsc23)c1 | ≤ 0.05 | 0.1 to 1 |
| C=CC(=O)Nc1cccc(Oc2nc(Nc3ccc(C(=O)NC4CCN(C)CC4)cc3)nc3ccsc23)c1 | ≤ 0.05 | ≤ 0.05 |
| C=CC(=O)Nc1cccc(Oc2nc(Nc3ccc(N4CCN(CC(F)F)CC4)cc3)nc3ccsc23)c1 | ≤ 0.05 | ≤ 0.05 |
| C=CC(=O)Nc1ccc(F)c(Nc2nc(Nc3ccc(N4CCN(C)CC4)cc3)nc3ccsc23)c1 | ≤ 0.05 | 0.05 to 0.1 |
